Data on 2 compounds can be found in ChEMBL document CHEMBL5113444, “Synthesis of biotinylated-LPG as a chemical biology tool enabling discovery of ALCAT1 modulators” (Bioorg Med Chem Lett, 2022).

Activity calls are given as the source filed them. No cut-off for these calls is given here.

In assay [1] the target is T1, Lysocardiolipin acyltransferase 1 (Homo sapiens) (UniProt Q6UWP7).
T1 sequence (whole entry): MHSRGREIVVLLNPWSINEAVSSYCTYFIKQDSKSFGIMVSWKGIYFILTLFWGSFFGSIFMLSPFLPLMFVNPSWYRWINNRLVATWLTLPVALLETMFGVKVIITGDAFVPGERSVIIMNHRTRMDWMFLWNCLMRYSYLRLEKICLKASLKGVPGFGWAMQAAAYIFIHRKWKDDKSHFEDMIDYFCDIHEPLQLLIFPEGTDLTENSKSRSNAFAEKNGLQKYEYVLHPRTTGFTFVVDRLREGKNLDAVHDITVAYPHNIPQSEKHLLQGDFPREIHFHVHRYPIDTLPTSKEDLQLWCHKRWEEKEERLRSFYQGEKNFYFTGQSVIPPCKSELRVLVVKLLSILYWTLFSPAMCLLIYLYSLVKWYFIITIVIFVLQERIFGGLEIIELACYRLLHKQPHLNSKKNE
Nature of the assay: Substrate activity at recombinant human ALCAT1 expressed in HEK293 cells using oleoyl-CoA as substrate assessed as acylated product formation by Rapidfire-triple quad mass spectrometry analysis. As to conditions: filed as modulator.

The target of assay [2] is T1, Lysocardiolipin acyltransferase 1 (Homo sapiens). Nature of the assay: Substrate activity at recombinant human ALCAT1 expressed in HEK293 cells using oleoyl-CoA as substrate assessed as biotinylated (BTN)-di-oleoyl LPG product formation by Rapidfire-triple quad mass spectrometry analysis. The settings on record: filed as modulator, time <= 64.0 min, TDE = time-dependent effect.

In the case of `CCCCCCCCCCCCCCCC(=O)OC[C@H](O)COP(=O)(O)OC[C@H](O)CO`, the outcome in assay [1] was Active.
`O=C1N[C@H]2[C@H](CS[C@H]2CCCCC(=O)OCCCCCCC/C=C\CCCCCCCC(=O)OC[C@@H](O)COP(=O)(O)OCC(O)CO)N1` (some centres not stated): the Activity result in assay [2] was “Tde”.
